Results reported in patent US20260132132A1, “3A,4,5,6-TETRAHYDRO-1 H-PYRAZOLO[3,4-C]PYRIDIN-7(7AH)-ONE DERIVATIVES AS FACTOR XIIA INHIBITORS” (KALVISTA PHARMACEUTICALS LIMITED, priority 2022, published 2026).

Assays:
FXa = FXa (Homo sapiens, UniProt P00742); assay: Related protease inhibition: FXa, fluorogenic substrate; type: biochemical; conditions: fluorogenic substrate at Km, 25° C.; H1-H3 = % activity at 40 μM
Experimental: Human serine protease enzyme Plasma Kallikrein, KLK1, FXa, Plasmin, Thrombin and Trypsin were assayed for enzymatic activity using an appropriate fluorogenic substrate at Km concentration, FXIa at fixed substrate concentration of 100 μM and various concentrations of the test compound.

[1] = target: T1, Human Factor XIIa (hFXIIa) (Homo sapiens, UniProt P00748); assay: Determination of Human Factor XIIa (hFXIIa) inhibition, fluorogenic substrate IC50 assay; type: biochemical; conditions: fluorogenic substrate H-DPro-Phe-Arg-AFC at Km, 25° C., read-out: Human FXIIa IC50
T1 construct: purchased Enzyme Research Laboratories
T1 sequence (P00748 373-615 limits assumed): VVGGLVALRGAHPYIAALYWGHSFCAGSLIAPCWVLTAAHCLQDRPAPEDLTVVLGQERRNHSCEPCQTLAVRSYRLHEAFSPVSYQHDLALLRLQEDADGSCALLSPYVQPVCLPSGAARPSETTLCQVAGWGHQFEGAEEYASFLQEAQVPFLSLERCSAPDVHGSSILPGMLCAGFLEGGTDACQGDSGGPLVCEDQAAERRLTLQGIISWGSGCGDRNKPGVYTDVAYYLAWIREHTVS
T1 sequence (P00748 20-372 partner limits assumed): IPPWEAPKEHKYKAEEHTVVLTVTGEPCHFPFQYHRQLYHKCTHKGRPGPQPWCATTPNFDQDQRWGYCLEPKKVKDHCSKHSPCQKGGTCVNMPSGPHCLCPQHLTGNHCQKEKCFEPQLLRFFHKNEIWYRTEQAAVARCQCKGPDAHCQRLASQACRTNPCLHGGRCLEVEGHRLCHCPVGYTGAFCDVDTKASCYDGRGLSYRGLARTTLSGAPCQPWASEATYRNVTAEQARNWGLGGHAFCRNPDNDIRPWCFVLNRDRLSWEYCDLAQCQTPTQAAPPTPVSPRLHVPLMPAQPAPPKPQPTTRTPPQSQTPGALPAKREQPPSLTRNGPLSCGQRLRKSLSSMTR
Experimental: Determination of Human Factor XIIa (hFXIIa) inhibition
The Km for the cleavage of the substrate by hFXIIa was determined by standard transformation of the Michaelis-Menten equation, with subsequent inhibition assays performed at substrate Km concentration.

Chain of FXa (P00742 235-488 limits assumed): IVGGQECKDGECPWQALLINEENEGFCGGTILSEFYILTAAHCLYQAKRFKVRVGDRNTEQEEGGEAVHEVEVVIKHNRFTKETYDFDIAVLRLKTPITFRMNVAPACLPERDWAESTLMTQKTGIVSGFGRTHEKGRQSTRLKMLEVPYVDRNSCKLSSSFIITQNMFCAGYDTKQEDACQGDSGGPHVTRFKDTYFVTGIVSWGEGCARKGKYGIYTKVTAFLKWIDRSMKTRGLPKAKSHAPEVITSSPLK
Chain of FXa (P00742 41-179 partner limits assumed): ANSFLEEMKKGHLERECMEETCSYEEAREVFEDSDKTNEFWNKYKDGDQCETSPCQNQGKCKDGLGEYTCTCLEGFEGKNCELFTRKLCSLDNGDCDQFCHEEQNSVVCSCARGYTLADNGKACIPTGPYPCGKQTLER

Structure (SMILES)	IC50 (FXa) [nM]	IC50 [1] [nM]
Cc1ccncc1CNC(=O)c1nn(-c2cccc(Cl)c2)c2c1CCN(c1ccc3c(c1)CN(CCO)CC3)C2=O [Example 1110, 1-(3-chlorophenyl)-6-(2-(2-hydroxyethyl)-1,2,3,4-tetrahydroisoquinolin-7-yl)-N-((4-methylpyridin-3-yl)methyl)-7-oxo-4,5,6,7-tetrahydro-1H-pyrazolo[3,4-c]pyridine-3-carboxamide]	10000 to 40000	10 to 100
Cc1ncccc1CNC(=O)c1nn(-c2cccc(Cl)c2)c2c1CCN(c1ccc3c(c1)CN(CCO)CC3)C2=O [Example 1111, 1-(3-chlorophenyl)-6-(2-(2-hydroxyethyl)-1,2,3,4-tetrahydroisoquinolin-7-yl)-N-((2-methylpyridin-3-yl)methyl)-7-oxo-4,5,6,7-tetrahydro-1H-pyrazolo[3,4-c]pyridine-3-carboxamide]	10000 to 40000	10 to 100
CC1(C)OCCC1NC(=O)c1nn(-c2cccc(Cl)c2)c2c1CCN(c1ccc3c(c1)CN(CCO)CC3)C2=O (stereo not shown) [Example 1112, 1-(3-chlorophenyl)-N-(2,2-dimethyltetrahydrofuran-3-yl)-6-(2-(2-hydroxyethyl)-1,2,3,4-tetrahydroisoquinolin-7-yl)-7-oxo-4,5,6,7-tetrahydro-1H-pyrazolo[3,4-c]pyridine-3-carboxamide]	> 40000	100 to 300
O=C(NCC1CC1)c1nn(-c2cccc(Cl)c2)c2c1CCN(c1ccc3c(c1)CN(C(=O)CO)CC3)C2=O [Example 1114, 1-(3-chlorophenyl)-N-(cyclopropylmethyl)-6-(2-(2-hydroxyacetyl)-1,2,3,4-tetrahydroisoquinolin-7-yl)-7-oxo-4,5,6,7-tetrahydro-1H-pyrazolo[3,4-c]pyridine-3-carboxamide]	> 40000	3000 to 10000
CCN1CCc2cnc(N3CCc4c(C(=O)NCC5CC5)nn(-c5cccc(Cl)c5)c4C3=O)cc2C1 [Example 1117, 1-(3-Chlorophenyl)-N-(cyclopropylmethyl)-6-(6-ethyl-5,6,7,8-tetrahydro-2,6-naphthyridin-3-yl)-7-oxo-4,5,6,7-tetrahydro-1H-pyrazolo[3,4-c]pyridine-3-carboxamide]	10000 to 40000	100 to 300
O=C(NCC1CC1)c1nn(-c2cccc(Cl)c2)c2c1CCN(c1cc3c(cn1)CCN(CCO)C3)C2=O [Example 1118, 1-(3-chlorophenyl)-N-(cyclopropylmethyl)-6-(6-(2-hydroxyethyl)-5,6,7,8-tetrahydro-2,6-naphthyridin-3-yl)-7-oxo-4,5,6,7-tetrahydro-1H-pyrazolo[3,4-c]pyridine-3-carboxamide]	> 40000	100 to 300
CCN1CCc2c(F)cc(N3CCc4c(C(=O)NCC5CC5)nn(-c5cccc(Cl)c5)c4C3=O)cc2C1 [Example 1121, 1-(3-chlorophenyl)-N-(cyclopropylmethyl)-6-(2-ethyl-5-fluoro-1,2,3,4-tetrahydroisoquinolin-7-yl)-7-oxo-4,5,6,7-tetrahydro-1H-pyrazolo[3,4-c]pyridine-3-carboxamide]	> 40000	100 to 300
O=C(NCC1CC1)c1nn(-c2cccc(Cl)c2)c2c1CCN(c1cc(F)c3c(c1)CN(CCO)CC3)C2=O [Example 1122, 1-(3-Chlorophenyl)-N-(cyclopropylmethyl)-6-(5-fluoro-2-(2-hydroxyethyl)-1,2,3,4-tetrahydroisoquinolin-7-yl)-7-oxo-4,5,6,7-tetrahydro-1H-pyrazolo[3,4-c]pyridine-3-carboxamide]	> 40000	100 to 300
O=C(NCC1CC1)c1nn(-c2cccc(Cl)c2)c2c1CCN(c1cc3c(cc1F)CCN(CCO)C3)C2=O [Example 1123, 1-(3-chlorophenyl)-N-(cyclopropylmethyl)-6-(6-fluoro-2-(2-hydroxyethyl)-1,2,3,4-tetrahydroisoquinolin-7-yl)-7-oxo-4,5,6,7-tetrahydro-1H-pyrazolo[3,4-c]pyridine-3-carboxamide]	> 40000	100 to 300
Cc1cc(CNC(=O)c2nn(-c3cccc(Cl)c3)c3c2CCN(c2cc4c(cc2F)CCN(CCO)C4)C3=O)[nH]n1 [Example 1125, 1-(3-chlorophenyl)-6-(6-fluoro-2-(2-hydroxyethyl)-1,2,3,4-tetrahydroisoquinolin-7-yl)-N-((3-methyl-1H-pyrazol-5-yl)methyl)-7-oxo-4,5,6,7-tetrahydro-1H-pyrazolo[3,4-c]pyridine-3-carboxamide]	10000 to 40000	10 to 100
Cc1cncc(CNC(=O)c2nn(-c3cccc(Cl)c3)c3c2CCN(c2ccc4c(c2)CN(CCO)CC4)C3=O)c1 [Example 1126, 1-(3-chlorophenyl)-6-(2-(2-hydroxyethyl)-1,2,3,4-tetrahydroisoquinolin-7-yl)-N-((5-methylpyridin-3-yl)methyl)-7-oxo-4,5,6,7-tetrahydro-1H-pyrazolo[3,4-c]pyridine-3-carboxamide]	10000 to 40000	10 to 100
O=C(NCc1cc(C2CC2)n[nH]1)c1nn(-c2cccc(Cl)c2)c2c1CCN(c1ccc3c(c1)CN(CCO)CC3)C2=O [Example 1127, 1-(3-chlorophenyl)-N-((3-cyclopropyl-1H-pyrazol-5-yl)methyl)-6-(2-(2-hydroxyethyl)-1,2,3,4-tetrahydroisoquinolin-7-yl)-7-oxo-4,5,6,7-tetrahydro-1H-pyrazolo[3,4-c]pyridine-3-carboxamide]	10000 to 40000	10 to 100
Cc1ccncc1CNC(=O)c1nn(-c2cccc(Cl)c2)c2c1CCN(c1ccc3c(c1)CN(C)CC3)C2=O [Example 1129, 1-(3-chlorophenyl)-6-(2-methyl-1,2,3,4-tetrahydroisoquinolin-7-yl)-N-((4-methylpyridin-3-yl)methyl)-7-oxo-4,5,6,7-tetrahydro-1H-pyrazolo[3,4-c]pyridine-3-carboxamide]	3000 to 10000	10 to 100
O=C(NCc1ncccc1F)c1nn(-c2cccc(Cl)c2)c2c1CCN(c1ccc3c(c1)CN(CCO)CC3)C2=O [Example 1130, 1-(3-chlorophenyl)-N-((3-fluoropyridin-2-yl)methyl)-6-(2-(2-hydroxyethyl)-1,2,3,4-tetrahydroisoquinolin-7-yl)-7-oxo-4,5,6,7-tetrahydro-1H-pyrazolo[3,4-c]pyridine-3-carboxamide]	10000 to 40000	10 to 100
Cn1ccc(CNC(=O)c2nn(-c3cccc(Cl)c3)c3c2CCN(c2ccc4c(c2)CN(CCO)CC4)C3=O)n1 [Example 1132, 1-(3-chlorophenyl)-6-(2-(2-hydroxyethyl)-1,2,3,4-tetrahydroisoquinolin-7-yl)-N-((1-methyl-1H-pyrazol-3-yl)methyl)-7-oxo-4,5,6,7-tetrahydro-1H-pyrazolo[3,4-c]pyridine-3-carboxamide]	10000 to 40000	10 to 100
Cc1ccncc1CNC(=O)c1nn(-c2cccc(Cl)c2)c2c1CCN(c1cc3c(cc1F)CCN(CCO)C3)C2=O [Example 1134, 1-(3-Chlorophenyl)-6-(6-fluoro-2-(2-hydroxyethyl)-1,2,3,4-tetrahydroisoquinolin-7-yl)-N-((4-methylpyridin-3-yl)methyl)-7-oxo-4,5,6,7-tetrahydro-1H-pyrazolo[3,4-c]pyridine-3-carboxamide]	10000 to 40000	10 to 100
COc1ccc(CNC(=O)c2nn(-c3cccc(Cl)c3)c3c2CCN(c2ccc4c(c2)CN(C)CC4)C3=O)cn1 [Example 1135, 1-(3-chlorophenyl)-N-((6-methoxypyridin-3-yl)methyl)-6-(2-methyl-1,2,3,4-tetrahydroisoquinolin-7-yl)-7-oxo-4,5,6,7-tetrahydro-1H-pyrazolo[3,4-c]pyridine-3-carboxamide]	1000 to 3000	10 to 100
O=C(NCc1cncc(F)c1)c1nn(-c2cccc(Cl)c2)c2c1CCN(c1ccc3c(c1)CN(CCO)CC3)C2=O [Example 1137, 1-(3-chlorophenyl)-N-((5-fluoropyridin-3-yl)methyl)-6-(2-(2-hydroxyethyl)-1,2,3,4-tetrahydroisoquinolin-7-yl)-7-oxo-4,5,6,7-tetrahydro-1H-pyrazolo[3,4-c]pyridine-3-carboxamide]	10000 to 40000	10 to 100
COc1ccc(CNC(=O)c2nn(-c3cccc(Cl)c3)c3c2CCN(c2ccc4c(c2)CN(CCO)CC4)C3=O)cn1 [Example 1138, 1-(3-chlorophenyl)-6-(2-(2-hydroxyethyl)-1,2,3,4-tetrahydroisoquinolin-7-yl)-N-((6-methoxypyridin-3-yl)methyl)-7-oxo-4,5,6,7-tetrahydro-1H-pyrazolo[3,4-c]pyridine-3-carboxamide]	3000 to 10000	10 to 100
Cc1cccc(CNC(=O)c2nn(-c3cccc(Cl)c3)c3c2CCN(c2ccc4c(c2)CN(CCO)CC4)C3=O)n1 [Example 1139, 1-(3-chlorophenyl)-6-(2-(2-hydroxyethyl)-1,2,3,4-tetrahydroisoquinolin-7-yl)-N-((6-methylpyridin-2-yl)methyl)-7-oxo-4,5,6,7-tetrahydro-1H-pyrazolo[3,4-c]pyridine-3-carboxamide]	10000 to 40000	10 to 100
